Data reported in the supplement of paper PMC10307832.

What was measured:
Experiment in all cases: relative viability (nuclei count vs DMSO), 5 days (fraction); higher = more cells survive
[1] = compound: COc1cc2ncn(-c3cc(OCc4ccccc4C(F)(F)F)c(C(N)=O)s3)c2cc1OC + CCNC(=O)c1noc(-c2cc(C(C)C)c(O)cc2O)c1-c1ccc(CN2CCOCC2)cc1 [Luminespib] (partner 0.01 µM)
Method in brief: (§1)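 Cells from lung cancer lines were seeded into 1536-well plates and, one day later, dosed by pin tool. Treatments were either a single drug or a fixed dose of an anchor drug with five library-drug doses (not always all listed) in √10 steps. After 5 days, nuclei were stained in a one-step fixation (final 0.05% Triton X-100, 1% formaldehyde, 1 ug/ml Hoechst) and counted on 4× images, and relative viability is the treated-to-vehicle nuclei ratio, as the median of duplicate plates.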

[2] = compound: COc1cc2ncn(-c3cc(OCc4ccccc4C(F)(F)F)c(C(N)=O)s3)c2cc1OC + CC(=O)c1c(C)c2cnc(Nc3ccc(N4CCNCC4)cn3)nc2n(C2CCCC2)c1=O [Palbociclib] (partner 0.5 µM)
Method in brief: as §1

[3] = compound: COc1cc2ncn(-c3cc(OCc4ccccc4C(F)(F)F)c(C(N)=O)s3)c2cc1OC + CS(=O)(=O)N1CCN(Cc2cc3nc(-c4cccc5[nH]ncc45)nc(N4CCOCC4)c3s2)CC1 [Pictilisib] (partner 1 µM)
Method in brief: as §1

[4] = compound: COc1cc2ncn(-c3cc(OCc4ccccc4C(F)(F)F)c(C(N)=O)s3)c2cc1OC + COc1cccc2cc(-c3nc([C@H]4CC[C@H](C(=O)O)CC4)n4ncnc(N)c34)[nH]c12 [OSI-027] (partner 0.5 µM)
Method in brief: as §1

Cell Line	relative viability ([1]; first compound 0.05 µM)	relative viability ([1]; first compound 0.1581 µM)	relative viability ([1]; first compound 0.5 µM)	relative viability ([1]; first compound 1.581 µM)	relative viability ([1]; first compound 5 µM)	relative viability ([2]; first compound 0.05 µM)	relative viability ([2]; first compound 0.1581 µM)	relative viability ([2]; first compound 0.5 µM)	relative viability ([2]; first compound 1.581 µM)	relative viability ([2]; first compound 5 µM)	relative viability ([3]; first compound 0.05 µM)	relative viability ([3]; first compound 0.1581 µM)	relative viability ([3]; first compound 0.5 µM)	relative viability ([3]; first compound 1.581 µM)	relative viability ([3]; first compound 5 µM)	relative viability ([4]; first compound 0.05 µM)	relative viability ([4]; first compound 0.1581 µM)	relative viability ([4]; first compound 0.5 µM)	relative viability ([4]; first compound 1.581 µM)	relative viability ([4]; first compound 5 µM)
LK-2	0.194	0.204	0.157	0.152	0.173	0.78	0.293	0.444	0.252	0.113	0.548	0.566	0.307	0.263	0.306	0.197	0.221	0.17	0.173	0.138
NCI-H727	0.396	0.311	0.334	0.291	0.31	0.701	0.716	0.608	0.547	0.628	0.392	0.373	0.403	0.245	0.188	0.684	0.692	0.457	0.516	0.407
HCC-366	–	–	–	–	–	0.136	0.372	0.248	0.0295	0.0149	0.149	0.12	0.0681	0.0359	0.015	1.1	0.814	0.182	0.0338	0.0229
HOP-62	0.966	0.638	0.708	0.176	0.123	0.411	0.417	0.403	0.148	0.107	0.753	0.805	0.566	0.123	0.0836	0.846	0.888	0.537	0.226	0.144
NCI-H1944	0.512	0.705	0.543	0.177	0.0836	0.412	0.373	0.308	0.205	0.119	0.368	0.363	0.307	0.206	0.166	0.589	0.396	0.254	0.14	0.112
UMC-11	0.974	0.722	0.128	0.161	0.145	0.331	0.35	0.258	0.256	0.224	0.727	0.81	0.226	0.149	0.121	0.469	0.34	0.147	0.169	0.14
LU99A	0.225	0.304	0.207	0.172	0.203	0.408	0.386	0.345	0.184	0.145	0.307	0.342	0.271	0.159	0.15	0.304	0.32	0.231	0.176	0.178
NCI-H650	0.748	0.759	0.632	0.118	0.37	0.301	0.335	0.279	0.188	0.34	0.959	0.781	0.642	0.224	0.396	0.503	0.63	0.383	0.213	0.189
A-427	0.998	0.973	0.617	0.246	0.114	0.553	0.479	0.502	0.331	0.236	0.76	0.527	0.729	0.262	0.117	0.54	0.339	0.432	0.158	0.114
COR-L 105	0.828	0.846	0.616	0.312	0.245	0.396	0.4	0.424	0.325	0.321	0.475	0.386	0.267	0.279	0.259	0.591	0.823	0.526	0.298	0.211
NCI-H441	0.312	0.378	0.216	0.224	0.202	0.243	0.255	0.172	0.125	0.147	0.652	0.352	0.163	0.13	0.131	0.553	0.495	0.2	0.245	0.237
NCI-H2126	0.957	0.875	0.532	0.288	0.265	0.373	0.31	0.348	0.273	0.265	0.462	0.517	0.477	0.254	0.229	0.715	0.771	0.604	0.289	0.22
EBC-1	–	–	–	–	–	–	–	–	–	–	0.478	0.383	0.145	0.134	0.141	–	–	–	–	–
NCI-H1648	–	–	–	–	–	0.222	0.309	0.234	0.273	0.255	–	–	–	–	–	0.255	0.219	0.244	0.238	0.198
SW 900	0.183	0.165	0.205	0.171	0.16	0.478	0.5	0.499	0.399	0.257	–	–	–	–	–	0.59	0.618	0.364	0.173	0.093
NCI-H596	1.16	1.08	0.79	0.272	0.276	–	–	–	–	–	0.393	0.405	0.371	0.191	0.178	0.758	0.759	0.429	0.222	0.253
NCI-H1563	0.587	0.501	0.513	0.474	0.4	–	–	–	–	–	0.684	0.607	0.683	0.55	0.5	0.853	0.687	0.798	0.57	0.488
NCI-H1299	–	–	–	–	–	–	–	–	–	–	0.77	0.699	0.18	0.142	0.132	–	–	–	–	–
NCI-H522	1.1	0.899	1.16	0.787	0.737	0.886	0.866	0.842	1.01	0.401	–	–	–	–	–	0.692	0.757	0.621	0.444	0.415
A549	–	–	–	–	–	–	–	–	–	–	0.606	0.55	0.0875	0.0523	0.0706	–	–	–	–	–
IA-LM	–	–	–	–	–	–	–	–	–	–	0.46	0.262	0.0711	0.0659	0.0766	–	–	–	–	–
Calu-6	–	–	–	–	–	–	–	–	–	–	0.821	0.735	0.221	0.0967	0.102	–	–	–	–	–
